Patent US8952024B2, “Herbicidal pyrimidone derivatives” (E I du Pont de Nemours and Company, priority 2009, dated 2015)

Assays:
Assay type in all cases: in vivo
[1] = test system: barnyardgrass (Echinochloa crus-galli); assay: Test A pre-/postemergence plant response
In short: (§1)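 Visually rated 0–100 injury (100 = complete control) versus untreated plants, ~10 days in greenhouse. Application pre- (soil spray, loam/sand) and postemergence (2–10 cm, 1–2 leaf stage), same timepoint.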

[2] = test system: corn (Zea mays); assay: Test A pre-/postemergence plant response
In short: as §1

[3] = test system: giant foxtail (Setaria faberii); assay: Test A pre-/postemergence plant response
In short: as §1

[4] = test system: large crabgrass (Digitaria sanguinalis); assay: Test A pre-/postemergence plant response
In short: as §1

[5] = test system: morningglory (Ipomoea spp.); assay: Test A pre-/postemergence plant response
In short: as §1

[6] = test system: pigweed (Amaranthus retroflexus); assay: Test A pre-/postemergence plant response
In short: as §1

[7] = test system: velvetleaf (Abutilon theophrasti); assay: Test A pre-/postemergence plant response
In short: as §1

[8] = test system: wheat (Triticum aestivum); assay: Test A pre-/postemergence plant response
In short: as §1

[9] = test system: cocklebur (Xanthium strumarium); assay: Test B pre-/postemergence plant response; details: for Cocklebur plant response rating (0 to 100 scale): 0 is no effect
In short: (§2)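 Steps: sow seed in loam–sand soil and spray preemergence, or grow plants in peat-based medium to 1–4 leaves (2–18 cm) and spray postemergence; formulation is non-phytotoxic solvent plus surfactant; hold in greenhouse 13–15 days; score visually vs controls, 0 = no effect, 100 = complete control.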

[10] = test system: giant foxtail (Setaria faberii); assay: Test B pre-/postemergence plant response; details: for Foxtail, Giant plant response rating (0 to 100 scale): 0 is no effect
In short: as §2

[11] = test system: green foxtail (Setaria viridis); assay: Test B pre-/postemergence plant response; details: for Foxtail, Green plant response rating (0 to 100 scale): 0 is no effect
In short: as §2

[12] = Postemergence, 125 g ai/ha, 0 to 100 scale where 0 is no effect and 100 is complete control
[13] = Postemergence, 500 g ai/ha, 0 to 100 scale, 0 = no effect, 100 = complete control, approx. ten days
[14] = Preemergence, 125 g ai/ha, 0 to 100 scale, 0 = no effect, 100 = complete control
[15] = Preemergence, 500 g ai/ha, visual injury, 0 to 100 scale (0 no effect, 100 complete control), approx. ten days
[16] = 16 g ai/ha, Postemergence, 0 to 100 scale
[17] = 62 g ai/ha, postemergence, 100 is complete control, 13 to 15 days
[18] = Postemergence, 31 g ai/ha, 0 to 100 scale (0 no effect, 100 complete control)
[19] = Postemergence, 125 g ai/ha, scale 0 to 100 (0 no effect, 100 complete control)
[20] = 31 g ai/ha, postemergence, scale 0 to 100, 0 is no effect, 100 is complete control
[21] = Postemergence, 250 g ai/ha, scale 0 to 100 (0 no effect, 100 complete control)
[22] = Postemergence, 125 g ai/ha, visual injury, 0 to 100 scale (0 no effect, 100 complete control), approx. ten days
[23] = 250 g ai/ha, Preemergence, 0 to 100 scale
[24] = Postemergence, 31 g ai/ha, scale 0 to 100 (0 no effect, 100 complete control)
[25] = Postemergence, 62 g ai/ha, scale 0 (no effect) to 100 (complete control), 13 to 15 days
[26] = Postemergence, 125 g ai/ha, visual rating after 13 to 15 days, scale 0 (no effect) to 100 (complete control)
[27] = Postemergence, 250 g ai/ha, scale 0 to 100
[28] = Preemergence, 31 g ai/ha, scale 0 to 100 (0 no effect, 100 complete control)
[29] = Preemergence, 62 g ai/ha, scale 0 to 100, 0 no effect, 100 complete control
[30] = Preemergence, 125 g ai/ha, 0 to 100 scale

For `CCn1c(-c2cc(F)cc(F)c2)ncc(C(=O)C2=C(O)CCCC2=O)c1=O` [Compound 122], the “Plant response rating, Barnyardgrass” value [1, 12] was 60, the “Plant response rating, Barnyardgrass” value [1, 13] was 80 and the “Plant response rating, Barnyardgrass” value [1, 14] was 30. The “Plant response rating, Barnyardgrass” value [1, 15] was 100, the “Plant response rating, Corn” value [2, 12] was 0 and the “Plant response rating, Corn” value [2, 13] was 30. For the same molecule, the “Plant response rating, Corn” value [2, 14] was 0, the “Plant response rating, Corn” value [2, 15] was 0 and the “Plant response rating, Foxtail, Giant” value [3, 12] was 70. The “Plant response rating, Foxtail, Giant” value [3, 13] was 80, the “Plant response rating, Foxtail, Giant” value [3, 14] was 30 and the “Plant response rating, Foxtail, Giant” value [3, 15] was 100. For the same molecule, the “Plant response rating, Crabgrass, Large” value [4, 12] was 70, the “Plant response rating, Crabgrass, Large” value [4, 13] was 90 and the “Plant response rating, Crabgrass, Large” value [4, 14] was 90. The “Plant response rating, Crabgrass, Large” value [4, 15] was 100, the “Plant response rating, Morningglory” value [5, 12] was 90 and the “Plant response rating, Morningglory” value [5, 13] was 100. For the same molecule, the “Plant response rating, Morningglory” value [5, 14] was 40, the “Plant response rating, Morningglory” value [5, 15] was 80 and the “Plant response rating, Pigweed” value [6, 12] was 100. The “Plant response rating, Pigweed” value [6, 13] was 100, the “Plant response rating, Pigweed” value [6, 14] was 100 and the “Plant response rating, Pigweed” value [6, 15] was 100. For the same molecule, the “Plant response rating, Velvetleaf” value [7, 12] was 100, the “Plant response rating, Velvetleaf” value [7, 13] was 100 and the “Plant response rating, Velvetleaf” value [7, 14] was 100. For the same molecule, the “Plant response rating, Velvetleaf” value [7, 15] was 100, the “Plant response rating, Wheat” value [8, 12] was 0 and the “Plant response rating, Wheat” value [8, 13] was 50. The “Plant response rating, Wheat” value [8, 14] was 0, the “Plant response rating, Wheat” value [8, 15] was 40 and the “Plant response rating, Cocklebur” value [9, 16] was 0. For the same molecule, the “Cocklebur plant response rating (0 to 100 scale)” value [9, 17] was 45, the “Plant response rating, Cocklebur” value [9, 18] was 20 and the “Plant response rating, Cocklebur” value [9, 19] was 85. For the same molecule, the “Plant response rating, Foxtail, Giant” value [10, 16] was 65, the “Foxtail, Giant plant response rating (0 to 100 scale)” value [10, 17] was 75 and the “Plant response rating, Foxtail, Giant” value [10, 18] was 70. The “Plant response rating, Foxtail, Giant” value [10, 19] was 80, the “Plant response rating, Foxtail, Green” value [11, 16] was 40 and the “Foxtail, Green plant response rating (0 to 100 scale)” value [11, 17] was 85. The “Plant response rating, Foxtail, Green” value [11, 18] was 80 and the “Plant response rating, Foxtail, Green” value [11, 19] was 85.
For `O=C1CCCC(O)=C1C(=O)c1cnc(-c2ccsc2)n(C2CCCCC2)c1=O` [Compound 99], the “Plant response rating, Barnyardgrass” value [1, 12] was 90, the “Plant response rating, Barnyardgrass” value [1, 13] was 90 and the “Plant response rating, Barnyardgrass” value [1, 14] was 10. For the same molecule, the “Plant response rating, Barnyardgrass” value [1, 15] was 90, the “Plant response rating, Corn” value [2, 12] was 0 and the “Plant response rating, Corn” value [2, 13] was 20. The “Plant response rating, Corn” value [2, 14] was 0, the “Plant response rating, Corn” value [2, 15] was 0 and the “Plant response rating, Foxtail, Giant” value [3, 12] was 80. The “Plant response rating, Foxtail, Giant” value [3, 13] was 90, the “Plant response rating, Foxtail, Giant” value [3, 14] was 40 and the “Plant response rating, Foxtail, Giant” value [3, 15] was 80. For the same molecule, the “Plant response rating, Crabgrass, Large” value [4, 12] was 90, the “Plant response rating, Crabgrass, Large” value [4, 13] was 100 and the “Plant response rating, Crabgrass, Large” value [4, 14] was 60. The “Plant response rating, Crabgrass, Large” value [4, 15] was 100, the “Plant response rating, Morningglory” value [5, 12] was 100 and the “Plant response rating, Morningglory” value [5, 13] was 100. For the same molecule, the “Plant response rating, Morningglory” value [5, 15] was 80, the “Plant response rating, Pigweed” value [6, 12] was 100 and the “Plant response rating, Pigweed” value [6, 13] was 100. For the same molecule, the “Plant response rating, Pigweed” value [6, 14] was 90, the “Plant response rating, Pigweed” value [6, 15] was 100 and the “Plant response rating, Velvetleaf” value [7, 12] was 100. For the same molecule, the “Plant response rating, Velvetleaf” value [7, 13] was 100, the “Plant response rating, Velvetleaf” value [7, 14] was 80 and the “Plant response rating, Velvetleaf” value [7, 15] was 100. The “Plant response rating, Wheat” value [8, 12] was 0, the “Plant response rating, Wheat” value [8, 13] was 0 and the “Plant response rating, Wheat” value [8, 14] was 0. The “Plant response rating, Wheat” value [8, 15] was 0, the “Plant response rating, Cocklebur” value [9, 20] was 95 and the “Cocklebur plant response rating (0 to 100 scale)” value [9, 17] was 100. For the same molecule, the “Plant response rating, Cocklebur” value [9, 19] was 100, the “Plant response rating, Cocklebur” value [9, 21] was 100 and the “Plant response rating, Foxtail, Giant” value [10, 20] was 75. For the same molecule, the “Foxtail, Giant plant response rating (0 to 100 scale)” value [10, 17] was 80, the “Plant response rating, Foxtail, Giant” value [10, 19] was 95 and the “Plant response rating, Foxtail, Giant” value [10, 21] was 95. For the same molecule, the “Plant response rating, Foxtail, Green” value [11, 20] was 50, the “Foxtail, Green plant response rating (0 to 100 scale)” value [11, 17] was 90 and the “Plant response rating, Foxtail, Green” value [11, 19] was 95. For the same molecule, the “Plant response rating, Foxtail, Green” value [11, 21] was 98.
“2-(3,5-difluorophenyl)-5-[(2-hydroxy-4-oxobicyclo[3.2.1]oct-2-en-3-yl)carbonyl]-3-(2-methoxyethyl)-4(3H)-pyrimidinone [Compound 243]” was tested, and the “Barnyardgrass plant response rating” value [1, 22] was 80, the “Plant response rating, Barnyardgrass” value [1, 13] was 100 and the “Plant response rating, Barnyardgrass” value [1, 14] was 0. The “Plant response rating, Barnyardgrass” value [1, 15] was 100, the “Corn plant response rating” value [2, 22] was 10 and the “Plant response rating, Corn” value [2, 13] was 70. For the same molecule, the “Plant response rating, Corn” value [2, 14] was 0, the “Plant response rating, Corn” value [2, 15] was 0 and the “Foxtail, Giant plant response rating” value [3, 22] was 80. The “Plant response rating, Foxtail, Giant” value [3, 13] was 90, the “Plant response rating, Foxtail, Giant” value [3, 14] was 40 and the “Plant response rating, Foxtail, Giant” value [3, 15] was 90. For the same molecule, the “Crabgrass, Large plant response rating” value [4, 22] was 70, the “Plant response rating, Crabgrass, Large” value [4, 13] was 90 and the “Plant response rating, Crabgrass, Large” value [4, 14] was 90. For the same molecule, the “Plant response rating, Crabgrass, Large” value [4, 15] was 100, the “Morningglory plant response rating” value [5, 22] was 80 and the “Plant response rating, Morningglory” value [5, 13] was 90. The “Plant response rating, Morningglory” value [5, 14] was 20, the “Plant response rating, Morningglory” value [5, 15] was 90 and the “Pigweed plant response rating” value [6, 22] was 100. The “Plant response rating, Pigweed” value [6, 13] was 100, the “Plant response rating, Pigweed” value [6, 14] was 50 and the “Plant response rating, Pigweed” value [6, 15] was 100. For the same molecule, the “Velvetleaf plant response rating” value [7, 22] was 100, the “Plant response rating, Velvetleaf” value [7, 13] was 100 and the “Plant response rating, Velvetleaf” value [7, 14] was 70. For the same molecule, the “Plant response rating, Velvetleaf” value [7, 15] was 100, the “Wheat plant response rating” value [8, 22] was 0 and the “Plant response rating, Wheat” value [8, 13] was 40. The “Plant response rating, Wheat” value [8, 14] was 0, the “Plant response rating, Wheat” value [8, 15] was 0 and the “Plant response rating, Cocklebur” value [9, 23] was 100. For the same molecule, the “Plant response rating, Cocklebur” value [9, 24] was 0, the “Plant response rating, Cocklebur” value [9, 25] was 0 and the “Plant response rating, Cocklebur” value [9, 26] was 35. For the same molecule, the “Cocklebur plant response rating” value [9, 27] was 45, the “Plant response rating, Cocklebur” value [9, 28] was 0 and the “Plant response rating, Cocklebur” value [9, 29] was 25. The “Cocklebur plant response rating” value [9, 30] was 65, the “Plant response rating, Foxtail, Giant” value [10, 23] was 98 and the “Plant response rating, Foxtail, Giant” value [10, 24] was 75. For the same molecule, the “Plant response rating, Foxtail, Giant” value [10, 25] was 85, the “Plant response rating, Foxtail, Giant” value [10, 26] was 95 and the “Foxtail, Giant plant response rating” value [10, 27] was 100. The “Plant response rating, Foxtail, Giant” value [10, 28] was 0, the “Plant response rating, Foxtail, Giant” value [10, 29] was 15 and the “Foxtail, Giant plant response rating” value [10, 30] was 60. The “Plant response rating, Foxtail, Green” value [11, 24] was 35, the “Plant response rating, Foxtail, Green” value [11, 25] was 40 and the “Plant response rating, Foxtail, Green” value [11, 26] was 80. For the same molecule, the “Foxtail, Green plant response rating” value [11, 27] was 95, the “Plant response rating, Foxtail, Green” value [11, 28] was 0 and the “Plant response rating, Foxtail, Green” value [11, 29] was 0. For the same molecule, the “Foxtail, Green plant response rating” value [11, 30] was 5.
